Calls of active or inactive are those of the source. No cut-off for these calls is given here.
System: Mycobacterium tuberculosis
Experiment: Antitubercular activity against Mycobacterium tuberculosis H37Rv at 6.25 ug/mL
Assay type: functional, organism-based

| SMILES | Activity |
| --- | --- |
| C=C1CC(=O)/C=C(/C)C[C@@H]2OC(=O)[C@]3(O[C@@H]23)[C@H]2C[C@@H]([C@@]3(C)CO3)[C@H](O)[C@]1(O)O2 | inactive |
| C=C(C)[C@H](CCC1=C[C@H](CC(C)=O)OC1=O)[C@H](O)c1oc(C(C)=O)cc1C | inactive |
